Reference: patent publication US11117915B2, “Antibacterial aminoglycoside analogs” (Cipla USA, Inc., priority 2007, dated 2021)
Converted amounts (≈) assume the structure as drawn. Like-named read-outs stand apart in the source and are kept apart here.

Assays:
E. coli ATCC 25922 = assay: MIC assay, CLSI broth microdilution, E. coli ATCC 25922 (AECO001); type: cell-based; conditions: for MIC: Escherichia coli, read-out: MIC AECO001
Description: (§1) Minimum inhibitory concentrations (MIC) were determined by reference Clinical and Laboratory Standards Institute (CLSI) broth microdilution methods per M7-A7 [2006]. Quality control ranges utilizing E. coli ATCC 25922, P. aeruginosa ATCC 27853 and S. aureus ATCC 29213, and interpretive criteria for comparator agents were as published in CLSI M100-S17 [2007]. Briefly, serial two-fold dilutions of the test compounds were prepared at 2× concentration in Mueller Hinton Broth. The compound dilutions were mixed in 96-well assay plates in a 1:1 ratio with bacterial inoculum. The inoculum was prepared by suspension of a colony from an agar plate that was prepared the previous day. Bacteria were suspended in sterile saline and added to each assay plate to obtain a final concentration of 5×10^5 CFU/mL. The plates were incubated at 35° C. for 20 hours in ambient air.
These MIC assays were conducted following the same protocol as set forth in Example 110. As shown, substituted sisomicin derivatives with groups other than methyl at the 6′-position have improved activity against strains expressing the AAC6′-modifying enzymes.

P. aeruginosa ATCC 27853 = assay: MIC assay, CLSI broth microdilution, P. aeruginosa ATCC 27853 (APAE001); type: cell-based; conditions: for MIC: Pseudomonas aeruginosa, read-out: MIC APAE001
Description: as §1

[1] = AECO001 is ATCC25922, 35° C., 20 hours
[2] = APAE001 is ATCC27853, 35° C., 20 hours

Row | Compound | MIC (E. coli ATCC 25922; ATCC25922, 20 h) [µg/mL] | MIC (P. aeruginosa ATCC 27853; ATCC27853, 20 h) [µg/mL] | also measured
1 | CN[C@@H]1[C@@H](O)[C@@H](O[C@@H]2[C@@H](O)[C@H](O[C@H]3OC(CNCCCN)=CC[C@H]3N)[C@@H](N)C[C@H]2NS(=O)(=O)CCN)OC[C@]1(C)O [Example 26, 6′-(3-Amino-propyl)-1-(2-amino-ethylsulfonamide)-sisomicin] | 1 to 16 (≈ 1.63 to 26.2 µM) | 1 to 16 (≈ 1.63 to 26.2 µM) | –
2 | CN[C@@H]1[C@@H](O)[C@@H](O[C@@H]2[C@@H](O)[C@H](O[C@H]3OC(CNCC(O)CO)=CC[C@H]3N)[C@@H](N)C[C@H]2NS(=O)(=O)CCN)OC[C@]1(C)O (stereo partly shown) [Example 27, 6′-(2-Hydroxy-propanol)-1-(2-amino-ethylsulfonamide)-sisomicin] | 1 to 16 (≈ 1.59 to 25.4 µM) | > 16 | –
3 | CN[C@@H]1[C@@H](O)[C@@H](O[C@@H]2[C@@H](O)[C@H](O[C@H]3OC(CNC[C@H](O)CO)=CC[C@H]3N)[C@@H](N)C[C@H]2NC(=O)[C@@H](O)CCN)OC[C@]1(C)O [Example 28, 6′-(2(S)-Hydroxy-propanol)-1-(4-amino-2(S)-hydroxy-butyryl)-sisomicin] | 1 to 16 (≈ 1.61 to 25.7 µM) | 1 to 16 (≈ 1.61 to 25.7 µM) | –
4 | CN[C@@H]1[C@@H](O)[C@@H](O[C@@H]2[C@@H](O)[C@H](O[C@H]3OC(CNCCO)=CC[C@H]3N)[C@@H](N)C[C@H]2NS(=O)(=O)CCN)OC[C@]1(C)O [Example 29, 6′-(2-Hydroxy-ethyl)-1-(2-amino-ethylsulfonamide)-sisomicin] | 1 to 16 (≈ 1.67 to 26.7 µM) | > 16 | –
5 | CN[C@@H]1[C@@H](O)[C@@H](O[C@@H]2[C@@H](O)[C@H](O[C@H]3OC(CNCC(N)CO)=CC[C@H]3N)[C@@H](N)C[C@H]2NC(=O)[C@@H](O)CCN)OC[C@]1(C)O (stereo partly drawn) [Example 30, 6′-(2-Amino-propanol)-1-(4-amino-2(S)-hydroxy-butyryl)-sisomicin] | < 1 | 1 to 16 (≈ 1.61 to 25.7 µM) | –
6 | CN[C@@H]1[C@@H](O)[C@@H](O[C@@H]2[C@@H](O)[C@H](O[C@H]3OC(CNCC4(O)CCNCC4)=CC[C@H]3N)[C@@H](N)C[C@H]2NC(=O)[C@@H](O)CCN)OC[C@]1(C)O [Example 31] | 1 to 16 (≈ 1.51 to 24.2 µM) | 1 to 16 (≈ 1.51 to 24.2 µM) | –
7 | CN[C@@H]1[C@@H](O)[C@@H](O[C@@H]2[C@@H](O)[C@H](O[C@H]3OC(CNCC(O)CCCN)=CC[C@H]3N)[C@@H](N)C[C@H]2NC(=O)[C@@H](O)CCN)OC[C@]1(C)O (stereo partly drawn) [Example 32, 6′-(2-Hydroxy-5-amino-pentyl)-1-(4-amino-2(S)-hydroxy-butyryl)-sisomicin] | < 1 | 1 to 16 (≈ 1.54 to 24.6 µM) | –
8 | CN[C@@H]1[C@@H](O)[C@@H](O[C@@H]2[C@@H](O)[C@H](O[C@H]3OC(CNC[C@H]4C[C@H](N)C4)=CC[C@H]3N)[C@@H](N)C[C@H]2NC(=O)[C@@H](O)CCN)OC[C@]1(C)O [Example 33, 6′-(Methyl-trans-3-amino-cyclobutyl)-1-(4-amino-2(S)-hydroxy-butyryl)-sisomicin] | < 1 | 1 to 16 (≈ 1.58 to 25.3 µM) | –
9 | CN[C@@H]1[C@@H](O)[C@@H](O[C@@H]2[C@@H](O)[C@H](O[C@H]3OC(CNCC(O)CCN)=CC[C@H]3N)[C@@H](N)C[C@H]2NC(=O)C2(O)CCNC2)OC[C@]1(C)O (stereo partly shown) [Example 35] | < 1 | 1 to 16 (≈ 1.54 to 24.7 µM) | –
10 | CN[C@@H]1[C@@H](O)[C@@H](O[C@@H]2[C@@H](O)[C@H](O[C@H]3OC(CNCCO)=CC[C@H]3N)[C@@H](N)C[C@H]2NC(=O)C2(O)CNC2)OC[C@]1(C)O [Example 37] | < 1 | 1 to 16 (≈ 1.69 to 27.1 µM) | –
11 | CN[C@@H]1[C@@H](O)[C@@H](O[C@@H]2[C@@H](O)[C@H](O[C@H]3OC(CNCCN)=CC[C@H]3N)[C@@H](N)C[C@H]2NC(=O)[C@@H](O)CCN)OC[C@]1(C)O [Example 38, 6′-(2-Amino-ethyl)-1-(4-amino-2(S)-hydroxy-butyryl)-sisomicin] | < 1 | 1 to 16 (≈ 1.69 to 27 µM) | –
12 | CN[C@@H]1[C@@H](O)[C@@H](O[C@@H]2[C@@H](O)[C@H](O[C@H]3OC(CNCC4(O)CC(CN)C4)=CC[C@H]3N)[C@@H](N)C[C@H]2NC(=O)[C@@H](O)CCN)OC[C@]1(C)O (stereo partly shown) [Example 39] | – | – | MIC (E. coli ATCC 25922; [1]): < 1 µg/mL; MIC (P. aeruginosa ATCC 27853; [2]): 1 to 16 µg/mL (≈ 1.51 to 24.2 µM)
13 | CN[C@@H]1[C@@H](O)[C@@H](O[C@@H]2[C@@H](O)[C@H](O[C@H]3OC(CNCCCN)=CC[C@H]3N)[C@@H](N)C[C@H]2NC(=O)C2(O)CCNC2)OC[C@]1(C)O (stereo partly shown) [Example 40] | 1 to 16 (≈ 1.62 to 25.9 µM) | 1 to 16 (≈ 1.62 to 25.9 µM) | –
14 | CN[C@@H]1[C@@H](O)[C@@H](O[C@@H]2[C@@H](O)[C@H](O[C@H]3OC(CNCC4CC4)=CC[C@H]3N)[C@@H](N)C[C@H]2NC(=O)C2(O)CCNC2)OC[C@]1(C)O (stereo partly shown) [Example 41] | < 1 | 1 to 16 (≈ 1.63 to 26 µM) | –
15 | CN[C@@H]1[C@@H](O)[C@@H](O[C@@H]2[C@@H](O)[C@H](O[C@H]3OC(CNCC(O)CN)=CC[C@H]3N)[C@@H](N)C[C@H]2NC(=O)C2(O)CCNC2)OC[C@]1(C)O (stereo partly shown) [Example 42, 6′-(2-Hydroxy-3-amino-propyl)-1-(3-hydroxy-pyrrolidin-3-yl-acetyl)-sisomicin] | 1 to 16 (≈ 1.58 to 25.2 µM) | 1 to 16 (≈ 1.58 to 25.2 µM) | –
16 | CN[C@@H]1[C@@H](O)[C@@H](O[C@@H]2[C@@H](O)[C@H](O[C@H]3OC(CNCCCCN)=CC[C@H]3N)[C@@H](N)C[C@H]2NC(=O)[C@@H](O)CCN)OC[C@]1(C)O [Example 43, 6′-(4-Amino-butyl)-1-(4-amino-2(S)-hydroxy-butyryl)-sisomicin] | < 1 | < 1 | –
17 | CN[C@@H]1[C@@H](O)[C@@H](O[C@@H]2[C@@H](O)[C@H](O[C@H]3OC(CNCCCCCN)=CC[C@H]3N)[C@@H](N)C[C@H]2NC(=O)[C@@H](O)CCN)OC[C@]1(C)O [Example 44, 6′-(5-Amino-pentyl)-1-(4-amino-2(S)-hydroxy-butyryl)-sisomicin] | < 1 | 1 to 16 (≈ 1.58 to 25.2 µM) | –
18 | CN[C@@H]1[C@@H](O)[C@@H](O[C@@H]2[C@@H](O)[C@H](O[C@H]3OC(CNCC4(O)CC(N)C4)=CC[C@H]3N)[C@@H](N)C[C@H]2NC(=O)[C@@H](O)CCN)OC[C@]1(C)O (stereo partly shown) [Example 46] | < 1 | 1 to 16 (≈ 1.54 to 24.7 µM) | –
19 | CN[C@@H]1[C@@H](O)[C@@H](O[C@@H]2[C@@H](O)[C@H](O[C@H]3OC(CNCC4(O)CC(N)C4)=CC[C@H]3N)[C@@H](N)C[C@H]2NC(=O)C2(O)CNC2)OC[C@]1(C)O (stereo partly shown) [Example 47] | 1 to 16 (≈ 1.55 to 24.8 µM) | 1 to 16 (≈ 1.55 to 24.8 µM) | –
20 | CN[C@@H]1[C@@H](O)[C@@H](O[C@@H]2[C@@H](O)[C@H](O[C@H]3OC(CNCCCN)=CC[C@H]3N)[C@@H](N)C[C@H]2NC(=O)[C@@H](O)CCN)OC[C@]1(C)O [Example 48, 6′-(3-Amino-propyl)-1-(4-amino-2(S)-hydroxy-butyryl)-sisomicin] | – | – | MIC (E. coli ATCC 25922; [1]): < 1 µg/mL; MIC AECO001 (E. coli ATCC 25922; Table 3, E. coli ATCC25922): 1 µg/mL (≈ 1.65 µM); MIC (P. aeruginosa ATCC 27853; [2]): 1 to 16 µg/mL (≈ 1.65 to 26.4 µM)
21 | CN[C@@H]1[C@@H](O)[C@@H](O[C@@H]2[C@@H](O)[C@H](O[C@H]3OC(CNCC4CCCN4)=CC[C@H]3N)[C@@H](N)C[C@H]2NC(=O)[C@@H](O)CCN)OC[C@]1(C)O (stereo partly drawn) [Example 49, 6′-(Methyl-pyrrolidin-2-yl)-1-(4-amino-2(S)-hydroxy-butyryl)-sisomicin] | < 1 | 1 to 16 (≈ 1.58 to 25.3 µM) | –
22 | CN[C@@H]1[C@@H](O)[C@@H](O[C@@H]2[C@@H](O)[C@H](O[C@H]3OC(CNC[C@H](O)C(=O)O)=CC[C@H]3N)[C@@H](N)C[C@H]2NC(=O)[C@@H](O)CCN)OC[C@]1(C)O [Example 50, 6′-(2(S)-Hydroxy-3-propanoic)-1-(4-amino-2(S)-hydroxy-butyryl)-sisomicin] | > 16 | > 16 | –
23 | CN[C@@H]1[C@@H](O)[C@@H](O[C@@H]2[C@@H](O)[C@H](O[C@H]3OC(CNCC(C)(C)CN)=CC[C@H]3N)[C@@H](N)C[C@H]2NC(=O)[C@@H](O)CN)OC[C@]1(C)O [Example 51, 6′-(2,2-Dimethyl-3-amino-propyl)-1-(3-amino-2(S)-hydroxy-propionyl)-sisomicin] | – | – | MIC AECO001 (E. coli ATCC 25922; [1]): A (MIC's of 1.0 μg/mL or less = A); MIC APAE001 (P. aeruginosa ATCC 27853; [2]): C (MIC's of greater than 16.0 μg/mL = C)
24 | CN[C@@H]1[C@@H](O)[C@@H](O[C@@H]2[C@@H](O)[C@H](O[C@H]3OC(CNCCC(N)C4CC4)=CC[C@H]3N)[C@@H](N)C[C@H]2NC(=O)[C@@H](O)CN)OC[C@]1(C)O (stereo partly drawn) [Example 52, 6′-(3-Amino-3-cyclopropyl-propyl)-1-(3-amino-2(S)-hydroxy-propionyl)-sisomicin] | – | – | MIC AECO001 (E. coli ATCC 25922; [1]): A (MIC's of 1.0 μg/mL or less = A); MIC APAE001 (P. aeruginosa ATCC 27853; [2]): B (MIC's of greater than 1.0 μg/mL to 16.0 μg/mL = B)
25 | CN[C@@H]1[C@@H](O)[C@@H](O[C@@H]2[C@@H](O)[C@H](O[C@H]3OC(CNC[C@H]4C[C@H](O)CN4)=CC[C@H]3N)[C@@H](N)C[C@H]2NC(=O)[C@@H](O)CN)CC[C@]1(C)O [Example 53, 6′-(Methyl-4(S)-hydroxy-pyrrolidin-2(R)-yl)-1-(3-amino-2(S)-hydroxy-propionyl)-sisomicin] | 1 to 16 (≈ 1.58 to 25.3 µM) | > 16 | –
26 | CN[C@@H]1[C@@H](O)[C@@H](O[C@@H]2[C@@H](O)[C@H](O[C@H]3OC(CNCCCO)=CC[C@H]3N)[C@@H](N)C[C@H]2NC(=O)[C@@H](O)CN)OC[C@]1(C)O [Example 54, 6′-(3-Propanol)-1-(3-amino-2(S)-hydroxy-propionyl)-sisomicin] | < 1 | 1 to 16 (≈ 1.69 to 27 µM) | –
27 | CN[C@@H]1[C@@H](O)[C@@H](O[C@@H]2[C@@H](O)[C@H](O[C@H]3OC(CNCC(C)(C)N)=CC[C@H]3N)[C@@H](N)C[C@H]2NC(=O)[C@@H](O)CN)OC[C@]1(C)O [Example 55, 6′-(2-Methyl-2-amino-propyl)-1-(3-amino-2(S)-hydroxy-propionyl)-sisomicin] | 1 to 16 (≈ 1.65 to 26.4 µM) | > 16 | –
